Assay results taken from patent US20050239784A1 (priority 2002, published 2005).
In brackets after ≈: the same amount, converted by molar mass. Where two headings read alike, the source gives them in different places.

How the values were obtained:
A2780 cells = experiment: Cytotox survival of A2780 cells after 3 days; assay type: cell-based; settings: for IC50: Homo sapiens, A2780, 72 h
Method: In an alternative assay, the growth inhibitory effect of the compounds was tested on the ovarian carcinoma cell line A2780 using art known cytotoxicity assays such as LIVE/DEAD (Molecular Probes) MTT.

CDK4 = CDK4 (Homo sapiens, UniProt P11802); experiment: biochemical
physchem = settings: pH 7.4, aqueous buffer, kinetic from dmso stock
AKT3 [1] = target: T1, AKT3 (Homo sapiens, UniProt Q9Y243); experiment: biochemical
Target sequence in this assay (Q9Y243 whole entry, species assumed): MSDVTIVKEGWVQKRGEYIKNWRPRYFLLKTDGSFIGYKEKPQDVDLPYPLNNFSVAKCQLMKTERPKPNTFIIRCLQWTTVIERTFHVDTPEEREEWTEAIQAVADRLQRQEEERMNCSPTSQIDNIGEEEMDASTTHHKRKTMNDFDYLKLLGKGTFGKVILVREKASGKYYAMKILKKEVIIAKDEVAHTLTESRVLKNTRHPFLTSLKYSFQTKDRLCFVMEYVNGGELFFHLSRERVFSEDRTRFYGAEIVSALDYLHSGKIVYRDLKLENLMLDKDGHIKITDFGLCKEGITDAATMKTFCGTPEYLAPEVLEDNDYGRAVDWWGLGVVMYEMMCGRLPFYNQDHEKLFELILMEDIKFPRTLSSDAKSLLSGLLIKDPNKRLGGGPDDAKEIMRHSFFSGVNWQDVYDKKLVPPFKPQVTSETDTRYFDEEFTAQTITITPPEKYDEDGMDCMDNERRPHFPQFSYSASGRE

CDC25B = target: T2, CDC25B (Homo sapiens, UniProt P30305); experiment: biochemical
T2 sequence (P30305 1-580): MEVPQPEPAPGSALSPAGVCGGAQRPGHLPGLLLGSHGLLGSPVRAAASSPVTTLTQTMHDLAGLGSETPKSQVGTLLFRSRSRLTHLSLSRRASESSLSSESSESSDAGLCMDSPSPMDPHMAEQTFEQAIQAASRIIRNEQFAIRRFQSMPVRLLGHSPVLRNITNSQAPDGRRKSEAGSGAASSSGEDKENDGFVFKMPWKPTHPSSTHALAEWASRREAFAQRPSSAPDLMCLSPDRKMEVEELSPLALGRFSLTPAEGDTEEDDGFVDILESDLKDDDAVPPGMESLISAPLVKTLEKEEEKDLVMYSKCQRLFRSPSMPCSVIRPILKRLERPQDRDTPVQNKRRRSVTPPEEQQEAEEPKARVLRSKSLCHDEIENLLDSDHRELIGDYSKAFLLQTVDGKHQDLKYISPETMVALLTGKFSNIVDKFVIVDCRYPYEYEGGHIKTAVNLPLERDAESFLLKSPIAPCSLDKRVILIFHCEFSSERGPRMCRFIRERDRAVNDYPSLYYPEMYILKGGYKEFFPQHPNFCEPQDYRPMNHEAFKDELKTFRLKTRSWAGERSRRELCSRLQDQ

AKT3 [2] = target: T1, AKT3; experiment: cell-based
Target sequence in this assay (Q9Y243 whole entry): as the sequence (Q9Y243 whole entry, species assumed) above

[3] = A2780 cells, 3 days, read-out: Cytotox survival of A2780 cells after 3 days - pIC50 values (converted)
[4] = CDK4 SPA (Ex. C.1): pIC50 values
[5] = AKT3 pep. (Ex. C.3): pIC50 values
[6] = read-out: CDC25B WT (Ex. C.5): pIC50 values (converted)
[7] = read-out: CDK4 SPA (Ex. C.1): pIC50 values (converted)
[8] = read-out: AKT cel (Ex. C.6): pIC50 values (converted)
[9] = read-out: AKT3 pep. (Ex. C.3): pIC50 values (converted)
[10] = read-out: Cytotox survival of A2780 cells after 3 days - pIC50 values, A2780 cells, 3 days (converted)
[11] = CDC25B WT (Ex. C.5): pIC50 values
[12] = AKT cel (Ex. C.6): pIC50 values, MDA-MB 231 cells, phosphorylated MAPK read-out

Chain of CDK4 (P11802 whole entry, species assumed): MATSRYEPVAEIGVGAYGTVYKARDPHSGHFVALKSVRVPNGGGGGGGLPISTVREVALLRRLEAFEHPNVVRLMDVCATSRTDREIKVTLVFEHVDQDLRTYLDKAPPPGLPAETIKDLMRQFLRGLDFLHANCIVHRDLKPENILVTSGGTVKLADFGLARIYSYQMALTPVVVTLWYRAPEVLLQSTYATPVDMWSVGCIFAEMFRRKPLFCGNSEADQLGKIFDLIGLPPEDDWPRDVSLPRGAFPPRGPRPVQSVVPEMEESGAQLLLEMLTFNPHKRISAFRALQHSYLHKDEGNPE
Chain of CDK4 (P24385 whole entry partner, species assumed): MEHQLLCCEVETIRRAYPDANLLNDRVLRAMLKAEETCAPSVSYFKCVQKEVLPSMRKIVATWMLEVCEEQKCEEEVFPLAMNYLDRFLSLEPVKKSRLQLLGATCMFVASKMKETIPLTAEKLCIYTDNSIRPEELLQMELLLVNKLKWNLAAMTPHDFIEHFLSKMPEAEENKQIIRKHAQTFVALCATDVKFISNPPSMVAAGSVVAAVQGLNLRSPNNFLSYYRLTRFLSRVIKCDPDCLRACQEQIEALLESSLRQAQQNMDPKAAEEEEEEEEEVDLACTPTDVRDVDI

Structure (SMILES) | IC50 (A2780 cells; [3]) [nM] | IC50 (CDK4; [4]) [nM] | solubility (physchem) [µM] | IC50 (AKT3 [1]; [5]) [nM] | IC50 (CDC25B; [6]) [nM] | Cytotox survival of A2780 cells after 3 days - pIC50 values (A2780 cells; A2780 cells, 3 days) | IC50 (CDK4; [7]) [nM] | IC50 (AKT3 [2]; [8]) [nM] | IC50 (AKT3 [1]; [9]) [nM] | IC50 (A2780 cells; [10]) [nM] | IC50 (CDC25B; [11]) [nM] | IC50 (AKT3 [2]; [12]) [nM]
CC(C)n1nc(-c2ccc(OCCN3CCOCC3)c(Cl)c2)nc2c(=O)n(C)c(=O)nc1-2 [Compound 74] | 190 | 161 | 160 to 1800 (≈ 73.7 to 830 µg/mL) | 111 |  |  |  |  |  |  |  | 
COc1cc(-c2nc3c(=O)n(C)c(=O)nc-3n(C(C)C)n2)cc(OC)c1OCCN1CCCCC1 [Compound 77] |  |  |  |  | 43.3 | 6.785 | 293 | > 1000 | 240 |  |  | 
COc1cc(-c2nc3c(=O)n(C)c(=O)nc-3n(C(C)C)n2)ccc1OCCN1CCCCC1 [Compound 78] |  |  | > 1800 |  | 44 |  | 513 | 301 | 262 | 269 |  | 
CC(C)n1nc(-c2ccc(OCCN3CCN(S(=O)(=O)N(C)C)CC3)cc2)nc2c(=O)n(C)c(=O)nc1-2 [Compound 79] |  |  | 160 to 1800 (≈ 85.2 to 959 µg/mL) |  | 26.2 |  | 404 | ≥ 3000 | 282 | 513 |  | 
CC(C)n1nc(-c2ccc(OCCN3CCN(C(=O)OC(C)(C)C)CC3)cc2)nc2c(=O)n(C)c(=O)nc1-2 [Compound 80] |  |  | 160 to 1800 (≈ 84.1 to 946 µg/mL) |  | 32.4 |  | 372 | > 300 | 395 | 390 |  | 
CC(C)n1nc(-c2ccc(OCCCN3CCCCC3)cc2)nc2c(=O)n(C)c(=O)nc1-2 [Compound 81] |  |  | > 1800 |  | 38.9 |  | 194 | > 1000 | 252 | 132 |  | 
CC(C)n1nc(-c2ccc(OCCN3CCNCC3)cc2)nc2c(=O)n(C)c(=O)nc1-2 [Compound 82] |  |  | > 1800 |  | 50.2 |  | 300 | 216 | 339 | 375 |  | 
CC(C)n1nc(-c2ccc(OCCCN3CCOCC3)cc2)nc2c(=O)n(C)c(=O)nc1-2 [Compound 84] | 216 | 586 | > 1800 | 280 |  |  |  |  |  |  | 38.3 | > 1000
COc1cc(-c2nc3c(=O)n(C)c(=O)nc-3n(C(C)C)n2)cc(OC)c1OCCN1CCN(C)CC1 [Compound 85] |  |  | > 1800 |  | 48.4 |  | 322 | > 1000 | 345 | 228 |  | 
COc1cc(-c2nc3c(=O)n(C)c(=O)nc-3n(C(C)C)n2)cc(OC)c1OS(=O)(=O)N(C)C [Compound 86] |  |  | 160 to 1800 (≈ 76.9 to 865 µg/mL) |  | 38.6 |  | 272 | > 1000 | 273 | 264 |  | 
CC(C)n1nc(-c2ccc(OS(=O)(=O)N(C)C)cc2)nc2c(=O)n(C)c(=O)nc1-2 [Compound 87] |  | 274 | 160 to 1800 (≈ 67.3 to 757 µg/mL) | 410 |  |  |  |  |  | 198 | 48.3 | > 1000
CC(C)n1nc(-c2ccc(OCCN3CCCCC3)c(Cl)c2)nc2c(=O)n(C)c(=O)nc1-2 [Compound 88] |  |  | 160 to 1800 (≈ 73.4 to 826 µg/mL) |  | 25.8 |  | 267 | > 1000 | 239 | 168 |  | 
COc1cc(-c2nc3c(=O)n(C)c(=O)nc-3n(C(C)C)n2)cc(OC)c1OCCN1CCN(C(=O)OC(C)(C)C)CC1 [Compound 89] |  |  | > 1800 |  | 35.5 |  | 506 | > 1000 | 352 | 527 |  | 
CC(C)n1nc(-c2ccc(OCCCN3CCCCC3)cc2)nc2c(=O)n(C)c(=O)nc1-2 [Compound 90] |  |  |  |  | 27.9 | 6.842 |  |  | 181 |  |  | 
CC(C)n1nc(-c2ccc(CNCCc3cccnc3)cc2)nc2c(=O)n(C)c(=O)nc1-2 [Compound 93] | 272 | 193 | > 1800 | 279 |  |  |  |  |  |  | 49.1 | > 1000
CC(C)n1nc(-c2ccc(OCCN3CCCCC3)cc2)nc2c(=O)n(C)c(=O)nc1-2 [Compound 94] |  |  | > 1800 |  | 36.4 |  | 173 |  | 165 | 163 |  | 

Structure (SMILES) | IC50 (A2780 cells; [3]) [nM] | IC50 (CDK4; [4]) [nM] | solubility (physchem) [µM] | IC50 (AKT3 [1]; [5]) [nM] | IC50 (CDC25B; [6]) [nM] | Cytotox survival of A2780 cells after 3 days - pIC50 values (A2780 cells; A2780 cells, 3 days) | IC50 (CDK4; [7]) [nM] | IC50 (AKT3 [2]; [8]) [nM] | IC50 (AKT3 [1]; [9]) [nM] | IC50 (A2780 cells; [10]) [nM] | IC50 (CDC25B; [11]) [nM] | IC50 (AKT3 [2]; [12]) [nM]
CC(C)n1nc(-c2ccc(OCCN(C)S(=O)(=O)N(C)C)cc2)nc2c(=O)n(C)c(=O)nc1-2 [Compound 95] |  |  | 160 to 1800 (≈ 76.4 to 860 µg/mL) |  | 41.4 |  | 321 | > 3000 | 190 | 481 |  | 
COc1cc(-c2nc3c(=O)n(C)c(=O)nc-3n(C(C)C)n2)cc(OC)c1OCCN1CCN(S(N)(=O)=O)CC1 [Compound 96] |  |  | > 1800 |  | 45 |  | 205 | > 3000 | 175 | 492 |  | 
CC(C)n1nc(-c2ccc(OCCN3CCN(C)CC3)cc2)nc2c(=O)n(C)c(=O)nc1-2 [Compound 97] |  |  | > 1800 |  | 42.7 |  | 164 | > 3000 | 198 | 292 |  | 
CC(C)n1nc(-c2ccc(CNC3CCNCC3)cc2)nc2c(=O)n(C)c(=O)nc1-2 [Compound 98] |  |  | > 1800 |  | 58.5 |  | 200 | > 3000 | 194 | 488 |  | 
CC(C)n1nc(-c2ccc(CNC3CCN(S(=O)(=O)N(C)C)CC3)cc2)nc2c(=O)n(C)c(=O)nc1-2 [Compound 99] |  |  | > 1800 |  | 30.3 |  | 141 | 432 | 170 | 120 |  | 
COCCNCc1ccc(-c2nc3c(=O)n(C)c(=O)nc-3n(C(C)C)n2)cc1 [Compound 100] | 246 | 157 | > 1800 | 178 |  |  |  |  |  |  | 49.9 | 407
CC(C)n1nc(-c2ccc(OCCN)cc2)nc2c(=O)n(C)c(=O)nc1-2 [Compound 101] | 579 | 230 | > 1800 | 232 |  |  |  |  |  |  | 53.5 | 513
CC(C)n1nc(-c2ccc(CN3CCN(S(N)(=O)=O)CC3)cc2)nc2c(=O)n(C)c(=O)nc1-2 [Compound 102] | 912 | 79.8 | > 1800 | 172 |  |  |  |  |  |  | 36.5 | > 3020
CC(C)n1nc(-c2ccc(CN3CCN(S(=O)(=O)N(C)C)CC3)cc2)nc2c(=O)n(C)c(=O)nc1-2 [Compound 103] |  |  | 160 to 1800 (≈ 80.4 to 905 µg/mL) |  | 22.6 |  | 357 | > 3020 | 129 | 425 |  | 
CC(C)n1nc(-c2ccc(OCCN3CCNCC3)c(Cl)c2)nc2c(=O)n(C)c(=O)nc1-2 [Compound 104] |  |  | > 1800 |  | 30.2 |  | 128 | 726 | 121 | 214 |  | 
COc1cc(-c2nc3c(=O)n(C)c(=O)nc-3n(C(C)C)n2)cc(OC)c1OCCN(C)C1CCNCC1 [Compound 105] |  |  | > 1800 |  | 35.6 |  | 153 | > 3020 | 138 | < 3010 |  | 
COc1cc(-c2nc3c(=O)n(C)c(=O)nc-3n(C(C)C)n2)cc(OC)c1OCCN1CCCCC1 [Compound 106] |  |  | > 1800 |  | 33.3 | 6.074 | 142 | > 3020 | 117 |  |  | 
CC(C)n1nc(-c2ccc(OCCNS(=O)(=O)N(C)C)cc2)nc2c(=O)n(C)c(=O)nc1-2 [Compound 109] |  |  | 160 to 1800 (≈ 74.2 to 834 µg/mL) |  |  |  | 166 | > 3020 | 155 | 594 |  | 
CC(C)n1nc(-c2ccc(CN(C)CCO)cc2)nc2c(=O)n(C)c(=O)nc1-2 [Compound 111] | 157 | 126 | > 1800 | 161 |  |  |  |  |  |  | 31 | 791
COc1cc(-c2nc3c(=O)n(C)c(=O)nc-3n(C3CCNCC3)n2)ccc1OCCN1CCCCC1 [Compound 152] |  |  |  |  | 25.4 |  | 187 | ≥ 3000 | 275 | 630 |  | 
Cn1c(=O)nc2n(C3CCNCC3)nc(-c3ccc(CCCN4CCCCC4)cc3)nc-2c1=O [Compound 155] |  | 72.6 |  | 232 |  |  |  |  |  | 177 | 36.9 | 469
